Legend:
[1] = tested on: CF human bronchial epithelial (CF HBE) cells; experiment: Short-circuit current in CF HBE cells; assay type: cell-based
Protocol: FIG. 5A-B. Airway epithelial chloride secretion. FIG. 5A. Short-circuit current in CF HBE cells. Eact and UTP (100 μM) were added in control (left) and IL-4 (10 ng/ml, 24 h, middle) treated CF HBE cells. (right) Summary of Eact-induced, T16Ainh-A01-sensitive peak current (mean±S.E., n=6-8, * P<0.05). ENaC was inhibited by 10 μM amiloride. FIG. 5B. Eact (10 μM) and UTP (100 μM) induced CaCC Cl^− current measured in primary cultures of non-CF human tracheal gland (HTG) serous cells. (left and gmiddle) TMEM16A, CFTR and ENaC were inhibited by pretreatment with T16Ainh-A01, CFTRinh-172 and amiloride, respectively. Inset: TMEM16A immunoblot in whole cell homogenates of CF HBE and HTG cells. (right) Summary of UTP and Eact-induced peak current in the presence and absence of T16Ainh-A01 (mean±S.E., n=3, * P<0.05).
Tracheal and bronchial tissues were obtained from non-CF and CF patients following lung transplantation or from postmortem examinations performed within 24 h after death. […]
(§1) Snapwell inserts containing TMEM16A-expressing FRT, HBE, CF HBE or HTG cells were mounted in Ussing chambers (Physiologic Instruments, San Diego, Calif.). […] Apical membrane current (for FRT cells) and short-circuit current were measured using an EVC4000 Multi-Channel V/I Clamp (World Precision Instruments, Sarasota, Fla.) and recorded using PowerLab/8sp (AD Instruments, Castle Hill, Australia).

[2] = tested on: non-CF human tracheal gland (HTG) serous cells; experiment: Short-circuit current in human tracheal gland (HTG) serous cells; assay type: cell-based; conditions: T16Ainh-A01 pretreatment
Protocol: FIG. 5A-B. Airway epithelial chloride secretion. FIG. 5A. Short-circuit current in CF HBE cells. Eact and UTP (100 μM) were added in control (left) and IL-4 (10 ng/ml, 24 h, middle) treated CF HBE cells. (right) Summary of Eact-induced, T16Ainh-A01-sensitive peak current (mean±S.E., n=6-8, * P<0.05). ENaC was inhibited by 10 μM amiloride. FIG. 5B. Eact (10 μM) and UTP (100 μM) induced CaCC Cl^− current measured in primary cultures of non-CF human tracheal gland (HTG) serous cells. (left and gmiddle) TMEM16A, CFTR and ENaC were inhibited by pretreatment with T16Ainh-A01, CFTRinh-172 and amiloride, respectively. Inset: TMEM16A immunoblot in whole cell homogenates of CF HBE and HTG cells. (right) Summary of UTP and Eact-induced peak current in the presence and absence of T16Ainh-A01 (mean±S.E., n=3, * P<0.05). […]
as §1, with “Australia). […]” for “Australia).”

[3] = tested on: mouse ileal smooth muscle; experiment: Intestinal smooth muscle contraction, ex vivo mouse ileal segments; conditions: T16Ainh-A01 10 μM
Protocol: FIG. 8A-C. Intestinal smooth muscle contraction. FIG. 8A. Representative traces from mouse ileal segments showing effects of T16Ainh-A01 (10 μM), carbachol (CCh, 1 μM) and Eact (10 μM). FIG. 8B. Effect of CCh (1 μM) and Eact (10 μM) following atropine (1 μM). FIG. 8C. Summary of contraction frequency (left), and resting and maximum tone (right) (mean±S.E., n=4-7, * P<0.05).
Wild type CD1 mice (age 8-10 weeks) were killed by avertin overdose (200 mg/kg). The ileum removed and washed with ice-cold HCO3^−-buffered solution. The ends of the ileal segments were tied with silk thread and connected to a force transducer. Beal segments were equilibrated for 60 min with a resting force of ˜1 mN, with changes of the bathing solution every 15 min. Tension was monitored continuously with a fixed-range precision force transducer (TSD, 125 C; Biopac, Goleta, Calif.) connected to a differential amplifier (DA 100B; Biopac). Data were recorded using MP100, Biopac digital acquisition system and analyzed using Acknowledge 3.5.7 software.
TMEM16A in expressed in the interstitial cells of Cajal, the pacemaker cells that control smooth muscle contraction dynamics in stomach and intestine (Huang et al., supra; Gomez-Pinilla et al. (2009) Am. J. Physiol. Gastrointest. Liver Physiol. 296, G1370-1381). The effect of Eact on mouse ileal smooth muscle contraction was investigated using an ex vivo intestinal preparation. […] Without wishing to be bound by theory, the constitutive TMEM16A activity in this ex vivo preparation could obscure Eact activity. To reveal Eact effects, atropine was first added to inhibit basal contractions. […] FIG. 8C summarizes data on contraction frequency, resting tone and maximal tone.

In the case of CCc1c(C)nc(SCC(=O)Nc2nc(-c3ccc(OC)cc3)cs2)[nH]c1=O [T16Ainh-A01, reference compound], the “block of Eact-induced Cl^− current in IL-4 treated CF bronchial cells” value [1] is reported as “blocked”, the “effect of pretreatment on UTP- and Eact-induced Cl^− current” value [2] is reported as “largely abolished” and the “spontaneous intestinal contractions at baseline” value [3] is reported as “inhibited”.

Source: US9790218B2, “Small molecule activators of calcium-activated chloride channels and methods of use” (The Regents of the University of California, priority 2011, dated 2017)
